Laboratory results reported in patent US20060122588A1, “Cryosurgery compositions and methods” (Regents of the University of Minnesota, priority 2002, published 2006).

Key:
[1] = cited from earlier work; for % Eutectic Concentration (wt./wt.) / Eutectic Temp.: solute in water; for Eutectic Concentration: Table 1, salts used to induce eutectic crystallization
[2] = test system: AT-1 rat prostate tumor cells; assay: Post-thaw viability of AT-1 cell suspensions in various media on the directional solidification stage (Hoechst/Propidium Iodide membrane integrity assay); type: cell-based; settings: end temperature −30° C., 5° C./minute
Protocol: (§1) In freezing experiments with cell suspensions, a half eutectic concentration solution was mixed with cell culture media (Dulbecco's Modified Eagle's Medium/F-12) in 1 (salt solution): 2 (culture media) volume ratio.
AT-1 rat prostate tumor cells were cultured in vitro under standard tissue culture conditions, as are known. AT-1 cells were suspended in each eutectic changing solution, and kept at about 4° C.
Cultured AT-1 cells were separated from a culture flask by immersion in 0.05% (by volume) trypsin and 0.53 mM EDTA, and then suspended in 5% (by volume) fetal bovine serum (FBS)-supplemented medium such that the final trypsin concentration was <0.005% (by volume). After the separation, the cells were pelleted by centrifugation and the excess medium was removed. […]
Post-thaw viabilities of AT-1 cell suspensions in various media were assessed for varying end temperature of the freezing and thawing protocol on the directional solidification stage. […]
The concentrations of these solutions were determined so that the use of these solutions would not result in excessive killing of the AT-1 cells due to high osmotic pressure. […]
Viability of the AT-1 cell suspensions was measured by a membrane integrity assay using Hoechst and Propidium Iodide. […] After incubation, viability was assessed under a fluorescent microscope by scoring more than 200 cells for each sample.

[3] = Onset temperature of eutectic solidification of AT-1 cell suspension media by DSC; type: physicochemical; settings: AT-1 cell suspension medium
Protocol: Controlled cooling and thawing rate were achieved by the DSC and directional solidification stage. Unless otherwise mentioned, cooling and thawing rates were 5° C./min.
The onset temperature of the eutectic solidification was measured using the DSC, as described herein. Generally speaking, the viability of the AT-1 cells in the suspension solutions decreased with end temperature regardless of the media used. Note that the temperatures of noticeable viability drop to coincide with the eutectic crystallization temperatures of each suspension media. When the viability of the AT-1 cell suspension in the 1×NaCl (the onset of eutectic crystallization at about […]) is compared with that of KCl infused AT-1 cell suspension (the onset of eutectic crystallization at about −21° C.), there is 70% less viability at −30° C. in the KCl infused AT-1 cell suspension.

AT-1 tumor tissues = assay: Histology of AT-1 tumor tissues 2 days after freezing experiments on the directional solidification stage; set-up: species or system rat; settings: frozen to −20° C., 400×
Protocol: FIGS. 7A-7F show images of histology preparations of AT-1 tumor tissues 2 days after the freezing experiments on the directional solidification stage. Control tissues are very similar in all cases (FIGS. 7A, 7C, and 7E). Some cytoplasmic retraction is seen after salt infusion in FIGS. 7C and 7E over the control sample (FIG. 7A), but overall viability appears high. After freezing the samples to −20° C., a reduction in the number and quality of nuclei in all frozen samples is noted (FIGS. 7B, 7D, and 7F). Nuclear changes include darkening, reduction in size of chromatin, pykonsis and in some cases loss of nuclear material. In addition, cell membranes in frozen salt infused samples are indistinct and difficult to identify. All of these changes appear accentuated in the KNO3 and KCl infused samples.

[4] = test system: AT-1 rat prostate tumor cells; assay: Post-thaw viability with half eutectic concentration KNO3 solution (Example 4); type: cell-based
Protocol: as §1
AT-1 rat prostate tumor cells were cultured in vitro, as described above. Cultured AT-1 cells were separated from a culture flask by immersion in 0.05% (by volume) trypsin and 0.53 mM EDTA, and then suspended in 5% (by volume) fetal bovine serum (FBS)-supplemented medium such that the final trypsin concentration was <0.005% (by volume). After the separation, the cells were pelleted by centrifugation and the excess medium was removed. The cell pellet was re-suspended into various aqueous solutions (about 1.0 ml) before experiments and nominal cell concentration was about 2×10^6 cells/ml. The suspensions were stored in 1.5 ml microcentrifuge tube on ice (about 4° C.).
Liver tissues were also isolated from the rats.
The directional solidification stage, as described above, was used in the experiments. Controlled cooling and thawing rate were achieved by the DSC and directional solidification stage. Unless otherwise mentioned, cooling and thawing rates were 50° C./min.
For the directional solidification stage, fast thawing rates (about 200° C./min) were employed. […]
Post-thaw viabilities of AT-1 cell suspensions in various media were assessed. […]

Structure (SMILES): [Ca+2].[Cl-].[Cl-] [CaCl2]
- % Eutectic Concentration (wt./wt.) [1]: 29.8 % (wt./wt.)
- Eutectic Temp. [1]: −55 °C

Structure (SMILES): [Br-].[K+] [KBr]
- Eutectic Temp. [1]: −13.0 °C

Structure (SMILES): [Cl-].[K+] [KCl, potassium chloride]
- less viability than AT-1 cell suspension in 1×NaCl [2]: 70%
- onset of eutectic crystallization [3]: about −21 °C
- histological changes after freezing (nuclei, cell membranes) (AT-1 tumor tissues): accentuated
- Eutectic Concentration [1]: 19.7 % wt./wt.
- % Eutectic Concentration (wt./wt.) [1]: 19.7% (wt./wt.)
- Eutectic Temp. [1]: −11.1 °C

Structure (SMILES): O=[N+]([O-])[O-].[K+] [KNO3, potassium nitrate]
- histological changes after freezing (nuclei, cell membranes) (AT-1 tumor tissues): accentuated
- post-thaw viability ([4]; frozen to about −20° C.): 15.2±7.1%
- viability of control samples ([4]; no freeze/thaw procedure): 92.1%
- Eutectic Concentration [1]: 10.9 % wt./wt.
- % Eutectic Concentration (wt./wt.) [1]: 10.9% (wt./wt.)
- Eutectic Temp. [1]: −2.9 °C

Structure (SMILES): [Cl-].[Cl-].[Mg+2] [MgCl2]
- % Eutectic Concentration (wt./wt.) [1]: 21.6 % (wt./wt.)
- Eutectic Temp. [1]: −33.6 °C

Structure (SMILES): O=S(=O)([O-])[O-].[Mg+2] [MgSO4]
- % Eutectic Concentration (wt./wt.) [1]: 19.0% (wt./wt.)
- Eutectic Temp. [1]: −3.9 °C

Structure (SMILES): Cl.N [NH4Cl]
- % Eutectic Concentration (wt./wt.) [1]: 18.6 % (wt./wt.)
- Eutectic Temp. [1]: −15.8 °C

Structure (SMILES): [Cl-].[Na+] [NaCl, sodium chloride]
- Eutectic Concentration [1]: 23.6 % wt./wt.
- % Eutectic Concentration (wt./wt.) [1]: 23.6% (wt./wt.)
- Eutectic Temp. [1]: −21.8 °C
- eutectic point of the solution ([1]; thermodynamic equilibrium): approximately −21.1 °C

Structure (SMILES): OC[C@H]1O[C@@](CO)(O[C@H]2O[C@H](CO)[C@@H](O)[C@H](O)[C@H]2O)[C@@H](O)[C@@H]1O [Sucrose]
- % Eutectic Concentration (wt./wt.) [1]: 62.5 % (wt./wt.)
- Eutectic Temp. [1]: −13.5 °C
